# Patent publication US7939657B2, “N-substituted benzene sulfonamides” (Elan Pharmaceuticals, Inc., priority 2003, dated 2011)
# Test system: gamma secretase cleavage of NotchΔE (constitutively active rat Notch1 construct ZEDN1)
# Assay: Notch signaling assay for selective inhibitors of gamma secretase (4xwtCBF1 Luciferase reporter gene co-transfected with NotchΔE ZEDN1)
# Type: cell-based
# Settings: 'the above assay' (reporter gene based Notch signaling assay), ranges stated as 'from about'
# Source text: “A presenilin-1-dependent gamma-secretase-like protease mediates release of Notch intracellular domain.” Nature 398(6727): 518-22; Mumm, J. S., E. H. Schroeter, M. T. Saxena, A. Griesemer, X. Tian, D. J. Pan, W. J. Ray and R. Kopan (2000). “A ligand-induced extracellular cleavage regulates gamma-secretase-like proteolytic activation of Notch1.” Mol Cell 5(2): 197-206; Zhang, Z., P. Nadeau, W. Song, D. Donoviel, M. Yuan, A. Bernstein and B. A. Yankner (2000). “Presenilins are required for gamma-secretase cleavage of beta-APP and transmembrane cleavage of Notch-1.” Nat Cell Biol 2(7): 463-5). Cleavage of APP by gamma secretase leads to β-amyloid synthesis. Cleavage of Notch1 by gamma secretase results in release of the Notch intracellular domain (NICD), which translocates to the nucleus and activates gene expression (Jarriault, S., C. Brou, F. Logeat, E. H. Schroeter, R. Kopan and A. Israel (1995). “Signalling downstream of activated mammalian Notch.” Nature 377(6547): 355-8; Kopan, R., E. H. Schroeter, H. Weintraub and J. S. Nye (1996). “Signal transduction by activated Notch: importance of proteolytic processing and its regulation by the extracellular domain.” Proc Natl Acad Sci USA 93(4): 1683-8; Schroeter, E. H., J. A. Kisslinger and R. Kopan (1998). “Notch-1 signalling requires ligand-induced proteolytic release of intracellular domain.” Nature 393(6683): 382-6). In particular, Notch signaling activates transcription of the mammalian homolog of the Drosophila transcription factor hairy-enhancer of split (Hes). Transcriptional activation of Hes1 is mediated by de-repression of CBF1/RBPJk upon binding by NICD in the nucleus. These facts have been exploited to develop a reporter gene assay for Notch Signaling Hsieh, J. J., T. Henkel, P. Salmon, E. Robey, M. G. Peterson and S. D. Hayward (1996). “Truncated mammalian Notch1 activates CBF1/RBPJk-repressed genes by a mechanism resembling that of Epstein-Barr virus EBNA2.” Mol Cell Biol 16(3): 952-9; Lu, F. M. and S. E. Lux (1996). “Constitutively active human Notch1 binds to the transcription factor CBF1 and stimulates transcription through a promoter containing a CBF1-responsive element.” Proc Natl Acad Sci USA 93(11): 5663-7).
# Due to the importance of Notch signaling in cell fate determination, and tissue differentiation during both development and in the adult, inhibition of Notch signaling by gamma secretase inhibitors is postulated to be a limiting factor in their therapeutic utility. […] “Notch signaling inhibits muscle cell differentiation through a CBF1-independent pathway.” Development 122(12): 3765-73 in combination with the CBF1 repressible Luciferase reporter gene 4xwtCBF1Luc (Hsieh, J. J., et al., (1996). Mol Cell Biol 16(3): 952-9).
# When 4xwtCBF1 Luciferase is co-transfected with NotchΔE (ZEDN1), γ-secretase cleavage of NotchΔE releases the Notch intracellular domain (NICD), which translocates to the nucleus and de-represses CBF1mediated transcriptional repression, leading to transcription of the Luciferase reporter gene. Luciferase activity is easily assayed in cell extracts using commercially available kits. The activity of the reporter gene is directly correlated with gamma secretase cleavage of NotchΔE, and as such, a reduction in Luciferase activity provides a convenient measure of inhibition of gamma secretase cleavage of NotchΔE.
row,Structure (SMILES),IC50
1,"COc1ccc(CN(C2CCCCNC2=O)S(=O)(=O)c2ccc(C(C)(C)C)cc2)cc1OC (stereo not drawn) [Compound 14, 4-tert-Butyl-N-(3,4-dimethoxy-benzyl)-N-(2-oxo-azepan-3-yl)-benzenesulfonamide]",> 1000 nM
2,"C=C(CC)CN(C1CCCCNC1=O)S(=O)(=O)c1ccc(Cl)cc1 (stereo not drawn) [Compound 66, 4-Chloro-N-(2-ethyl-allyl)-N-(2-oxo-azepan-3-yl)-benzenesulfonamide]",100 to 1000 nM
3,"O=C1NCCCC[C@H]1N(CCCOCc1ccccc1)S(=O)(=O)c1ccc(Cl)cc1 [Compound 89, N-[3-(benzyloxy)propyl]-4-chloro-N-[(3R)-2-oxoazepan-3-yl]benzenesulfonamide]",> 1000 nM
4,"O=C1c2ccccc2C(=O)C1CCCCN([C@@H]1CCCCNC1=O)S(=O)(=O)c1ccc(Cl)cc1 [Compound 108, 4-chloro-N-[4-(1,3-dioxo-2,3-dihydro-1H-inden-2-yl)butyl]-N-[(3R)-2-oxoazepan-3-yl]benzenesulfonamide]",100 to 1000 nM
5,"O=C1NCC[C@H]1N(Cc1ccc(F)cc1F)S(=O)(=O)c1ccc(Cl)cc1 [Compound 148, 4-chloro-N-(2,4-difluorobenzyl)-N-[(3R)-2-oxopyrrolidin-3-yl]benzenesulfonamide]",> 1000 nM
6,"O=C1NCCCCC1N(Cc1ccc(Br)s1)S(=O)(=O)c1ccc(Cl)cc1 (stereo not drawn) [Compound 160, N-(5-Bromo-thiophen-2-ylmethyl)-4-chloro-N-(2-oxo-azepan-3-yl)-benzenesulfonamide]",100 to 1000 nM
7,"O=C1NCCCCC1N(Cc1cccn1S(=O)(=O)c1ccccc1)S(=O)(=O)c1ccc(Cl)cc1 (stereo not drawn) [Compound 206, N-(1-Benzenesulfonyl-1H-pyrrol-2-ylmethyl)-4-chloro-N-(2-oxo-azepan-3-yl)-benzenesulfonamide]",> 1000 nM
8,"NC(=O)CN(C1CCCCNC1=O)S(=O)(=O)c1ccc(Cl)cc1 (stereo not drawn) [Compound 338, 2-[(4-Chloro-benzenesulfonyl)-(2-oxo-azepan-3-yl)-amino]-acetamide]",> 1000 nM
9,"O=C(CCCc1ccccc1)Nc1ccc(CN([C@@H]2CCCCNC2=O)S(=O)(=O)c2ccc(Cl)cc2)cc1F [Compound 505, N-[4-({[(4-chlorophenyl)sulfonyl][(3R)-2-oxoazepan-3-yl]amino}methyl)-2-fluorophenyl]-4-phenylbutanamide]",100 to 1000 nM
10,"O=C(NCc1ccccc1OC(F)(F)F)c1ccc(CN([C@@H]2CCCCNC2=O)S(=O)(=O)c2ccc(Cl)cc2)cc1 [Compound 579, 4-({[(4-chlorophenyl)sulfonyl][(3R)-2-oxoazepan-3-yl]amino}methyl)-N-[2-(trifluoromethoxy)benzyl]benzamide]",100 to 1000 nM
11,"CCN(C(=O)c1ccc(CN([C@@H]2CCCCNC2=O)S(=O)(=O)c2ccc(Cl)cc2)cc1)C1CCCCC1 [Compound 609, 4-({[(4-chlorophenyl)sulfonyl][(3R)-2-oxoazepan-3-yl]amino}methyl)-N-cyclohexyl-N-ethylbenzamide]",100 to 1000 nM
12,"O=C1NCCCC[C@H]1N(Cc1ccc(C(=O)N(Cc2cccnc2)Cc2cccnc2)cc1)S(=O)(=O)c1ccc(Cl)cc1 [Compound 613, 4-({[(4-chlorophenyl)sulfonyl][(3R)-2-oxoazepan-3-yl]amino}methyl)-N,N-bis(pyridin-3-ylmethyl)benzamide]",> 1000 nM
13,"CC(NC(=O)c1ccc(CN([C@@H]2CCCCNC2=O)S(=O)(=O)c2ccc(Cl)cc2)cc1)c1cccnc1 (stereo partly drawn) [Compound 636, 4-({[(4-chlorophenyl)sulfonyl][(3R)-2-oxoazepan-3-yl]amino}methyl)-N-(1-pyridin-3-ylethyl)benzamide]",25 to 100 nM
14,O=C1NCCCC[C@H]1N(Cc1ccc(-c2nnn[nH]2)cc1)S(=O)(=O)c1ccc(Cl)cc1 [Compound 663],25 to 100 nM
15,O=C1NCCCC[C@H]1N(Cc1ccc(-c2nnc(-c3ccccc3)o2)cc1)S(=O)(=O)c1ccc(Cl)cc1 [Compound 672],> 1000 nM

# Now from value to compound:
row,IC50,Structure (SMILES)
1,0.1 to 25 nM,"O=C1NCCCC[C@H]1N(Cc1ccc2c(c1)OCCO2)S(=O)(=O)c1ccc(Cl)cc1 [Compound 77, 4-chloro-N-(2,3-dihydro-1,4-benzodioxin-6-ylmethyl)-N-[(3R)-2-oxoazepan-3-yl]benzenesulfonamide]"
2,25 to 100 nM,"O=C1NCCCC[C@H]1N(Cc1ccc2ccccc2c1)S(=O)(=O)c1ccc(Cl)cc1 [Compound 227, 4-chloro-N-(2-naphthylmethyl)-N-[(3R)-2-oxoazepan-3-yl]benzenesulfonamide]"
3,0.1 to 25 nM,"O=C1NCCCCC1N(Cc1ccc2c(c1)OCO2)S(=O)(=O)c1ccc(Cl)cc1 (stereo not drawn) [Compound 249, N-Benzo[1,3]dioxol-5-ylmethyl-4-chloro-N-(2-oxo-azepan-3-yl)-benzenesulfonamide]"
4,0.1 to 25 nM,"CSc1ccc(CN(C2CCCCNC2=O)S(=O)(=O)c2ccc(Cl)cc2)cc1 (stereo not drawn) [Compound 269, 4-Chloro-N-(4-methylsulfanyl-benzyl)-N-(2-oxo-azepan-3-yl)-benzenesulfonamide]"
5,0.1 to 25 nM,"COC(=O)c1ccc(CN([C@@H]2CCCCNC2=O)S(=O)(=O)c2ccc(Cl)cc2)cc1 [Compound 275, methyl 4-({[(4-chlorophenyl)sulfonyl][(3R)-2-oxoazepan-3-yl]amino}methyl)benzoate]"
6,25 to 100 nM,"CC(C)CNC(=O)c1ccc(CN([C@@H]2CCCCNC2=O)S(=O)(=O)c2ccc(Cl)cc2)cc1 [Compound 486, 4-({[(4-chlorophenyl)sulfonyl][(3R)-2-oxoazepan-3-yl]amino}methyl)-N-isobutylbenzamide]"
7,0.1 to 25 nM,"C[C@@H](NC(=O)c1ccc(CN([C@@H]2CCCCNC2=O)S(=O)(=O)c2ccc(Cl)cc2)cc1)c1ccccc1 [Compound 537, 4-({[(4-chlorophenyl)sulfonyl][(3R)-2-oxoazepan-3-yl]amino}methyl)-N-[(1R)-1-phenylethyl]benzamide]"
8,25 to 100 nM,"CC[C@@H](NC(=O)c1ccc(CN([C@@H]2CCCCNC2=O)S(=O)(=O)c2ccc(Cl)cc2)cc1)c1ccccc1 [Compound 553, 4-({[(4-chlorophenyl)sulfonyl][(3R)-2-oxoazepan-3-yl]amino}methyl)-N-[(1R)-1-phenylpropyl]benzamide]"
9,0.1 to 25 nM,"O=C(NCc1cccnc1)c1ccc(CN([C@@H]2CCCCNC2=O)S(=O)(=O)c2ccc(Cl)cc2)cc1 [Compound 593, 4-({[(4-chlorophenyl)sulfonyl][(3R)-2-oxoazepan-3-yl]amino}methyl)-N-(pyridin-3-ylmethyl)benzamide]"
